Drawing on patent publication US20230097157A1, “Bicyclic Pyridin-2-one and pyrimidin-4-one Derivatives Useful As a Factor XIa Inhibitors” (Janssen Pharmaceutica NV, priority 2021, published 2023), this text covers IC50 for 12 molecules.

Like-named read-outs stand apart in the source and are kept apart here.

For one experiment, the target named is Factor XIa (Homo sapiens, UniProt P03951). Description: Factor XIa inhibition assay (FLINT) utilizing a fluorophore-quencher pair peptide substrate 5Fam-[…]-K5Tamra. The class given is biochemical. Conditions: kinetic (KIN) reads, read-out: FXIa KIN Inh IC50. The text has this:
Biological Example 1: Factor XIa Inhibition Assay Utilizing a Fluorophore-Quencher Pair Peptide Substrate A fluorescence intensity (FLINT) based assay was used to monitor inhibition of Factor XIa. The peptide substrate, 5Fam-[…]-K5Tamra (purchased from New England Peptide) was chosen based on the FXI sequence. Conversion of zymogen FXI to its activated form, FXIa, occurs by proteolytic cleavage by […] at two sites, Arg146 and Arg180. The custom peptide used in this assay was based on the Arg146 cleavage site of FXI. The peptide substrate was designed with a fluorophore-quencher pair, where the fluorescence is quenched until FXIa cleaves the 8-mer peptide after the Arg residue.
The Factor XIa FLINT assay was used with the following 5Fam-[…]-K5Tamra assay buffer: 50 mM Tris, pH 7.5, 100 mM NaCl, 5 mM CaCl2, 0.1 mg/mL BSA, 0.03% CHAPS. Assay buffer was prepared by mixing all ingredients fresh. 5Fam-[…]-K5Tamra peptide substrate was first prepared at 10 mM in 100% DMSO, then diluted to 3 mM in 100% DMSO. Assay buffer was then added directly to the 3 mM stock of substrate to prepare the 30 μM 2× working concentration (15 μM final concentration). The 2× Factor XIa stock solution was prepared by diluting 6.562 μM stock in 1× assay buffer for a […].
Test compound(s) were run in an 11-point, 3-fold serial dilution with a final top compound concentration of 100 nM. Final DMSO in assay was 2%. FXIa was preincubated with compound for 30-minutes and then substrate was added to initiate the reaction. The assay was run with kinetic (KIN) reads at 5 min intervals over 30 minutes. […] More specifically, the assay was run as follows: • 100 nL of 0.01 mM test compound was dispensed into black 384-well non-binding Greiner BioOne 784900 plate for 0.1 μM final concentration; • 5 μL of 1× assay buffer was dispensed to column 24 (low control) and 5 μL 2× Factor XIa solution was dispensed to columns 1-23 (column 23 high control); • the plate was centrifuged with a “cover” plate at 500 rpm for 1 min • the plate was pre-incubated for 30 minutes at room temperature with plate covered; • 5 μL of 2×5Fam-[…]-K5Tamra peptide substrate was dispensed into the entire plate, columns 1-24; • the plate was centrifuged with a “cover” plate at 500 rpm for 1 min; • the plate was read monitoring fluorescence intensity on the BMG PHERAStar at room temperature, using fluorescence module 485 nm/520 nm.
(§1) Percent inhibition (IC50) curves were generated per compound tested, and data was analyzed using a 4-parameter logistic fit using GeneData Screener. The relative fluorescence unit (RFU) values were normalized to percent inhibition using the following equation:
% inhibition=((HC−LC)−(compound−LC)/(HC−LC))*100 where LC−low control=mean signal of no Factor XIa or 100% inhibition of Factor XIa; HC−high control=mean signal of Factor XIa+5Fam-[…]-K5Tamra peptide substrate with DMSO only.
(§2) An 11-point dose response curve for the test compound(s) was generated using GENDATA to determine IC50 value based on the following equation:
Y=Bottom+(Top−Bottom)/(1+10^((log IC50−X)*HillSlope)) where Y is the % inhibition in the presence of X inhibitor concentration, Top=high control=mean signal of Factor XIa+5Fam-[…]-K5Tamra peptide substrate with DMSO only; Bottom=low control−mean signal of no Factor XIa or 100% inhibition of Factor XIa; HillSlope−Hill coefficient; and IC50=concentration of compound with 50% inhibition in relation to top/high control.

A further experiment has as its target human plasma kallikrein (Homo sapiens, UniProt P03952). Description: Kallikrein inhibition assay (FLINT) utilizing a quenched AMC peptide substrate Z-Gly-Pro-Arg-AMC. The conditions noted are these: kinetic (KIN) reads, read-out: Kallikrein KIN Inh IC50. The class given is biochemical.
Excerpt: Biological Example 2: Kallikrein Inhibition Assay Utilizing a Quenched AMC Peptide Substrate A fluorescence intensity (FLINT) based assay was used to monitor inhibition of human plasma kallikrein. The peptide substrate, Z-Gly-Pro-Arg-AMC (Purchased from Bachem; Catalog #I-1150) was chosen based on its relatively low KM for kallikrein which enables running the assay at lower substrate concentrations to control background fluorescence.
The Kallikrein FLINT assay was used with the following Z-Gly-Pro-Arg-AMC assay buffer: 50 mM Tris, pH 7.5, 100 mM NaCl, 5 mM CaCl2, 0.1 mg/mL BSA, 0.03% CHAPS. Assay buffer was prepared by mixing all ingredients fresh. 2× Z-Gly-Pro-Arg-AMC peptide substrate was prepared by diluting 10 mM stock into 1× assay buffer for a 100 μM working concentration (50 μM final concentration). The 2× kallikrein stock solution was prepared by diluting 14.76 μM stock in 1× assay buffer for a 4 nM working stock solution (2 nM final concentration).
Test compound(s) were run in an 11-point, 3-fold serial dilution with a final top compound concentration of 1 μM. Final DMSO in assay was 2%. Plasma kallikrein was pre-incubated for 30-minute with compound and then 50 μM substrate was added to initiate the reaction. The assay was run with kinetic (KIN) reads at 5 min intervals over 30 minutes. The time course was linear using 2 nM kallikrein greater than 30 minutes. More specifically, the assay was run as follows: • 100 nL of 0.1 mM test compound was dispensed into black 384-well non-binding Greiner BioOne 784900 plate for 1 μM final concentration; • 5 μL of 1× assay buffer was dispensed to columns 24 (low control) and 5 μL 2× human kallikrein enzyme solution was dispensed to columns 1-23 (column 23 high control); • the plate was centrifuged with a “cover” plate at 500 rpm for 1 min • the plate was pre-incubated for 30 minutes at room temperature with plate covered; • 5 μL of 2× Z-Gly-Pro-Arg-AMC peptide substrate was dispensed into the entire plate, columns 1-24; • the plate was centrifuged with a “cover” plate at 500 rpm for 1 min; • the plate was read monitoring fluorescence intensity on the BMG PHERAStar at room temperature, using fluorescence module 340 nm/440 nm.
as §1
% inhibition=((HC−LC)−(compound−LC)/(HC−LC))*100 where LC—low control=mean signal of […] or 100% inhibition of human kallikrein enzyme; HC—high control=mean signal of […]+Z-Gly-Pro-Arg-AMC peptide substrate with DMSO only.
as §2
Y=Bottom+(Top−Bottom)/(1+10^((log IC50−X)*HillSlope)) where Y is the % inhibition in the presence of X inhibitor concentration, Top=high control=mean signal of human kallikrein enzyme+Z-Gly-Pro-Arg-AMC peptide substrate with DMSO only; Bottom=low control−mean signal of no human kallikrein enzyme or 100% inhibition of human kallikrein enzyme; HillSlope−Hill coefficient; and IC50=concentration of compound with 50% inhibition in relation to top/high control.

By IC50 is commonly meant the concentration needed to halve the response being measured.

Sequence of Factor XIa (P03951 388-625 limits assumed): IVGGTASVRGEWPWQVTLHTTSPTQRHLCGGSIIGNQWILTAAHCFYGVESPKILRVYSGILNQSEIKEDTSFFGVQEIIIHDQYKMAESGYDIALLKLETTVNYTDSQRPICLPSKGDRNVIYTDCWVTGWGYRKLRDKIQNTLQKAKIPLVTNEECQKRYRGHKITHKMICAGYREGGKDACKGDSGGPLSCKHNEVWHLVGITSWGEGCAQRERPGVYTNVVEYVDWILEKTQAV
Sequence of Factor XIa (P03951 19-387 partner limits assumed): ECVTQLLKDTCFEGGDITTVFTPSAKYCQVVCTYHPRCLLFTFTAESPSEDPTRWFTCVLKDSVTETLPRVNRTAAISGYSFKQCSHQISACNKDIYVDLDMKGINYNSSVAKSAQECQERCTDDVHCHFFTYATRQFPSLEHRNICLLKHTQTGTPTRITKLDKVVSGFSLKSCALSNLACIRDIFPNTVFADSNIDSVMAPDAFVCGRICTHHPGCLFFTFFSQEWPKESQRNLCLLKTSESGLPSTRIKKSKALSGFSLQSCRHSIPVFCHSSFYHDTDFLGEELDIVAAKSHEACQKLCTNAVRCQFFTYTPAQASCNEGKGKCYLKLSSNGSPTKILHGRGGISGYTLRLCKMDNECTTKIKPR
Sequence of human plasma kallikrein (P03952 391-638 limits assumed): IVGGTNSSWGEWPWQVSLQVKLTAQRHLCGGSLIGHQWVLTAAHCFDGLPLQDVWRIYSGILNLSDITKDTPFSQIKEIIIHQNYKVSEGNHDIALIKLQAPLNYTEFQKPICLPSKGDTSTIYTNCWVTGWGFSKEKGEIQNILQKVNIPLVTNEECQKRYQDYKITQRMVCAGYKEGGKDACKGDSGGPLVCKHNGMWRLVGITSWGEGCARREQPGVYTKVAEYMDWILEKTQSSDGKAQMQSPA
Sequence of human plasma kallikrein (P03952 20-390 partner limits assumed): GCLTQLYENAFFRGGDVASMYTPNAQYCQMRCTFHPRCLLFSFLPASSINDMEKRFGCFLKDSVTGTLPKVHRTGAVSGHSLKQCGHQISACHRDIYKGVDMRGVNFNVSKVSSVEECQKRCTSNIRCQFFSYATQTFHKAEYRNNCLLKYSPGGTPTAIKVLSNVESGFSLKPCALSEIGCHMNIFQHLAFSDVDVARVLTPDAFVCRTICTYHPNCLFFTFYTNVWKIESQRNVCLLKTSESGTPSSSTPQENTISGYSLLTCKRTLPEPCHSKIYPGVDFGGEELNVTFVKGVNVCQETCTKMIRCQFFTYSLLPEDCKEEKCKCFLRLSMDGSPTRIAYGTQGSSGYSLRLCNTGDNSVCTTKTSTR

As to `C[C@H]1C[C@@H](c2ncc(-c3ccnc(C(F)(F)F)c3)[nH]2)n2c1nc(-c1c(-n3cnnn3)ccc(Cl)c1F)cc2=O` (relative stereo) [Example 148, (6S*,8S*)-2-(3-Chloro-2-fluoro-6-(1H-tetrazol-1-yl)phenyl)-8-methyl-6-(5-(2-(trifluoromethyl)pyridin-4-yl)-1H-imidazol-2-yl)-7,8-dihydropyrrolo[1,2-a]pyrimidin-4(6H)-one], the IC50 was found to be 47.6 nM at Factor XIa (values in nM) and 94 nM at human plasma kallikrein (values in nM).

In the case of `C[C@@H]1C[C@H](c2ncc(-c3ccnc(F)c3)[nH]2)n2c1cc(-c1c(-n3cnnn3)ccc(Cl)c1F)cc2=O` (stereo in doubt) [Example 43, (1*R,3*R)-7-(3-Chloro-2-fluoro-6-(1H-tetrazol-1-yl)phenyl)-3-(5-(2-fluoropyridin-4-yl)-1H-imidazol-2-yl)-1-methyl-2,3-dihydroindolizin-5(1H)-one], the IC50 turned out to be 12.4 nM at Factor XIa (values in nM) and 108 nM on human plasma kallikrein (values in nM).

In the case of `C[C@H]1C[C@@H](c2ncc(-c3ccc(N)nc3F)[nH]2)n2c1cc(-c1cc(Cl)ccc1-n1cnnn1)cc2=O` [Example 29, (1S,3S)-3-[5-(6-amino-2-fluoro-3-pyridyl)-1H-imidazol-2-yl]-7-[5-chloro-2-(tetrazol-1-yl)phenyl]-1-methyl-2,3-dihydro-1H-indolizin-5-one], the IC50 on Factor XIa (values in nM) was 0.5 nM; on human plasma kallikrein (values in nM), 39.5 nM.

Consider `C[C@H]1C[C@@H](c2ncc(-c3ccnc(N)n3)[nH]2)n2c1cc(-c1c(-n3cnnn3)ccc(Cl)c1F)cc2=O` [Example 20, (1S,3S)-3-(5-(2-Aminopyrimidin-4-yl)-1H-imidazol-2-yl)-7-(3-chloro-2-fluoro-6-(1H-tetrazol-1-yl)phenyl)-1-methyl-2,3-dihydroindolizin-5(1H)-one], for which the figures for the IC50 on Factor XIa (values in nM) and on human plasma kallikrein (values in nM) were 19.7 nM and 295 nM, respectively.

In the case of `C[C@H]1C[C@@H](c2ncc(-c3cc4c(cn3)NC(=O)CC4)[nH]2)n2c1cc(-c1c(-n3cnnn3)ccc(Cl)c1F)cc2=O` (single isomer, unassigned) [Example 9, 6-(2-((1*S,3*S)-7-(3-Chloro-2-fluoro-6-(1H-tetrazol-1-yl)phenyl)-1-methyl-5-oxo-1,2,3,5-tetrahydroindolizin-3-yl)-1H-imidazol-5-yl)-3,4-dihydro-1,7-naphthyridin-2(1H)-one], the values for the IC50 at Factor XIa (values in nM) and on human plasma kallikrein (values in nM) were 6.9 nM and roughly 21.4 nM, respectively.

In the case of `C[C@H]1C[C@@H](c2ncc(-c3ccc(=O)[nH]c3)[nH]2)n2c1cc(-c1c(-n3cnnn3)ccc(Cl)c1F)cc2=O` [Example 16, (1S,3S)-7-(3-Chloro-2-fluoro-6-(1H-tetrazol-1-yl)phenyl)-1-methyl-3-(5-(6-oxo-1,6-dihydropyridin-3-yl)-1H-imidazol-2-yl)-2,3-dihydroindolizin-5(1H)-one], the IC50 on Factor XIa (values in nM) was found to be 78.1 nM; at human plasma kallikrein (values in nM) it was 447 nM.

As for `Nc1ccc(-c2cnc([C@@H]3CC4(CC4)c4cc(-c5cc(Cl)ccc5-n5cnnn5)cc(=O)n43)[nH]2)c(F)n1` (single isomer, unassigned) [Example 4], the IC50 was greater than 100 nM at Factor XIa (values in nM) and greater than 1000 nM on human plasma kallikrein (unit μM).

As for `C[C@@H]1C[C@@H](c2ncc(-c3ccc(N)nc3F)[nH]2)n2c1nc(-c1c(-n3cnnn3)ccc(Cl)c1F)cc2=O` (relative stereo) [Example 137, (6S*,8R*)-6-(5-(6-Amino-2-fluoropyridin-3-yl)-1H-imidazol-2-yl)-2-(3-chloro-2-fluoro-6-(1H-tetrazol-1-yl)phenyl)-8-methyl-7,8-dihydropyrrolo[1,2-a]pyrimidin-4(6H)-one], the figures for the IC50 on Factor XIa (values in nM) and at human plasma kallikrein (unit μM) were 104 nM and 7200 nM, respectively.

For `C[C@H]1C[C@H](c2ncc(-c3cn[nH]c3)[nH]2)n2c1nc(-c1c(-n3cnnn3)ccc(Cl)c1F)cc2=O` (stereo in doubt) [Example 109, (6*R,8*S)-6-(5-(1H-Pyrazol-4-yl)-1H-imidazol-2-yl)-2-(3-chloro-2-fluoro-6-(1H-tetrazol-1-yl)phenyl)-8-methyl-7,8-dihydropyrrolo[1,2-a]pyrimidin-4(6H)-one], the IC50 at Factor XIa (unit μM) and on human plasma kallikrein (unit μM) was greater than 10000 nM in each case.

As for `COC(=O)Nc1ccc(-c2cnc([C@H]3C[C@H](C)c4nc(-c5c(-n6cnnn6)ccc(Cl)c5F)cc(=O)n43)[nH]2)cn1` (stereo in doubt) [Example 115, methyl (5-(2-((6R*,8S*)-2-(3-Chloro-2-fluoro-6-(1H-tetrazol-1-yl)phenyl)-8-methyl-4-oxo-4,6,7,8-tetrahydropyrrolo[1,2-a]pyrimidin-6-yl)-1H-imidazol-5-yl)pyridin-2-yl)carbamate], the values for the IC50 at Factor XIa (values in nM) and on human plasma kallikrein (unit μM) were 247 nM and 6000 nM, respectively.

For the molecule `COc1nccc(-c2cnc([C@@H]3C[C@H](C)c4nc(-c5c(-n6cnnn6)ccc(Cl)c5F)cc(=O)n43)[nH]2)n1` (relative stereo) [Example 103, (6S,8S)-2-(3-chloro-2-fluoro-6-(1H-tetrazol-1-yl)phenyl)-6-(5-(2-methoxypyrimidin-4-yl)-1H-imidazol-2-yl)-8-methyl-7,8-dihydropyrrolo[1,2-a]pyrimidin-4(6H)-one], the IC50 at Factor XIa (values in nM) was determined as 63.4 nM; on human plasma kallikrein (values in nM), 151 nM.

On to `C[C@H]1C[C@@H](c2ncc(-c3ncc(N)nc3C3CC3)[nH]2)n2c1nc(-c1c(-n3cnnn3)ccc(Cl)c1F)cc2=O` (relative stereo) [Example 91, (6*S,8*S)-6-(5-(5-Amino-3-cyclopropylpyrazin-2-yl)-1H-imidazol-2-yl)-2-(3-chloro-2-fluoro-6-(1H-tetrazol-1-yl)phenyl)-8-methyl-7,8-dihydropyrrolo[1,2-a]pyrimidin-4(6H)-one], for which the IC50 at Factor XIa (values in nM) was 39 nM; at human plasma kallikrein (values in nM) it was 168 nM.
